The values that follow come from PubChem BioAssay (NCI).

Structures are written as SMILES.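 Briefly, cells in 96-well plates were exposed to five compound concentrations for 48 h, and endpoints were estimated by linear interpolation. TGI: concentration producing complete growth inhibition.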

One assay deals with SF-539 CNS. Kind of assay: NCI anticancer screen, dose series, 48 h.
For the compound `O=[N+]([O-])/C(C(Cl)=C(Cl)Cl)=C(\SCc1ccccc1)N1CCCCC1`, the TGI turned out to be 46 µM.

Compound `O=S1(=O)NC(=NCc2c[nH]c3ccccc23)N(c2ccccc2)c2ccncc21` gave a TGI of over 100 µM.

As to `CC[C@@]1(O)C(=O)OCc2c1cc1n(c2=O)Cc2c-1nc1ccccc1c2/C=N\NC(=O)CN`, the TGI is 0.127 µM.

The compound `COC(=O)c1cc2c(n1S(=O)(=O)c1ccc(C)cc1)C(=O)C(=O)c1[nH]cc(C(=O)OCc3ccccc3)c1-2` displayed a TGI of 0.311 µM.

`COc1ccc(C2c3cc4c(cc3OC(NNS(=O)(=O)c3ccc(C)cc3)C2C)OCO4)cc1` (stereo unspecified) gave a TGI of over 100 µM.

The next assay deals with MDA-MB-231 breast. The assay is described as follows: NCI anticancer screen, dose series, 48 h.
Consider `Oc1cc2c3c(c1)c1cc4c(cc1c[n+]3CC2)OCO4`, for which the TGI was determined as 29.9 µM.

Take `O=C(O)c1cccc2c1/C(=N/Nc1ccccc1)CC2`: the TGI is over 100 µM.

Consider `O=c1[nH][nH]c(=O)n1Cc1ccccc1Cn1c(=O)[nH][nH]c1=O`, for which the TGI is over 100 µM.

Consider `c1ccc(N=C2SC3=Nc4cccc5cccc(c45)N3C2=Nc2ccccc2)cc1`, for which the TGI is over 100 µM.

`CN1CCN([C@H]2C[C@H]3[C@@H]4CC=C5C[C@@H](O)CC[C@]5(C)[C@H]4CC[C@]3(C)C2=O)CC1` displayed a TGI of over 100 µM.

Regarding `C=C(C1=CC(=O)C(C)(C)O1)[C@@H]1CC=C([C@@H]2CC[C@H]3[C@@]2(C)CC[C@H]2C(C)(C)C(=O)[C@H](O)C[C@]32C)[C@H](O)O1`, the TGI came out at 4.74 µM.

`CCNC(=S)N/N=C/c1cc([N+](=O)[O-])ccc1O` showed a TGI of over 100 µM.

Compound `Oc1cccc2c(Cl)ccnc12` gave a TGI of 97.5 µM.

In turn, `Oc1ccc(-c2nc(-c3cccnc3)c(-c3ccc(F)cc3)[nH]2)cc1` had a TGI of 41.7 µM.

Regarding `CCC1(O)CC2CC(=O)OC2C1O` (stereo unspecified), the TGI is over 100 µM.

With `CCOC(=O)Nn1c(C)nnc1-c1ccccc1`, the TGI was over 100 µM.

`Cc1cn(C2CC(N(O)C(N)=O)C(CO)O2)c(=O)[nH]c1=O` (stereo unspecified) registered a TGI of over 100 µM.

The compound `O=[N+]([O-])/C(C(Cl)=C(Cl)Cl)=C(\SCc1ccccc1)N1CCCCC1` displayed a TGI of 37.3 µM.

`COC(=O)[C@H]1CO[C@@H](C(C)(C)C)N1C(=O)N1C=CC(=O)C[C@@H]1C` registered a TGI of over 100 µM.

For the compound `COc1ccc2c(=O)c(O)c(-c3ccc(OC)c(OC)c3)oc2c1`, the TGI is over 100 µM.

In turn, `O=S1(=O)NC(=NCc2c[nH]c3ccccc23)N(c2ccccc2)c2ccncc21` returned a TGI of over 100 µM.

With `CC[C@@]1(O)C(=O)OCc2c1cc1n(c2=O)Cc2c-1nc1ccccc1c2/C=N\NC(=O)CN`, the TGI was over 100 µM.

In the case of `Cc1ccsc1/C=N/Nc1ncccn1`, the TGI is over 100 µM.

As for `CCc1ccc(CCN2CCCCC2)nc1`, the TGI is over 100 µM.

In turn, `COC(=O)c1cc2c(n1S(=O)(=O)c1ccc(C)cc1)C(=O)C(=O)c1[nH]cc(C(=O)OCc3ccccc3)c1-2` had a TGI of 0.168 µM.

On to `COc1ccc(C2c3cc4c(cc3OC(NNS(=O)(=O)c3ccc(C)cc3)C2C)OCO4)cc1` (stereo unspecified), for which the TGI was over 100 µM.

Consider `COC(=O)[C@H](Cc1c[nH]c2ccccc12)NP(=O)(O)OCC1C=CC(n2cc(C)c(=O)[nH]c2=O)O1` (stereo partly specified), for which the TGI is over 100 µM.

The test system of a further assay is OVCAR-4 ovarian. Kind of assay: NCI anticancer screen, dose series, 48 h.
In turn, `Oc1cc2c3c(c1)c1cc4c(cc1c[n+]3CC2)OCO4` returned a TGI of over 48.6 µM.

Compound `O=C(O)c1cccc2c1/C(=N/Nc1ccccc1)CC2` showed a TGI of over 100 µM.

For the compound `CN1CCN([C@H]2C[C@H]3[C@@H]4CC=C5C[C@@H](O)CC[C@]5(C)[C@H]4CC[C@]3(C)C2=O)CC1`, the TGI is over 100 µM.

For the compound `C=C(C1=CC(=O)C(C)(C)O1)[C@@H]1CC=C([C@@H]2CC[C@H]3[C@@]2(C)CC[C@H]2C(C)(C)C(=O)[C@H](O)C[C@]32C)[C@H](O)O1`, the TGI turned out to be 10.3 µM.

As for `CCNC(=S)N/N=C/c1cc([N+](=O)[O-])ccc1O`, the TGI amounted to 72.8 µM.

In turn, `Oc1cccc2c(Cl)ccnc12` gave a TGI of 7.45 µM.

Turning to `COc1cc([C@@H]2c3cc4c(cc3[C@@H](Nc3ccc([N+](=O)[O-])cc3C(=O)c3ccccc3)[C@H]3COC(=O)[C@H]23)OCO4)cc(OC)c1OC`, the TGI is over 100 µM.

In the case of `Oc1ccc(-c2nc(-c3cccnc3)c(-c3ccc(F)cc3)[nH]2)cc1`, the TGI is 52.7 µM.

As to `CCC1(O)CC2CC(=O)OC2C1O` (stereo unspecified), the TGI was over 100 µM.

As to `CCOC(=O)Nn1c(C)nnc1-c1ccccc1`, the TGI is over 100 µM.

The compound `Cc1cn(C2CC(N(O)C(N)=O)C(CO)O2)c(=O)[nH]c1=O` (stereo unspecified) returned a TGI of over 100 µM.

Compound `O=[N+]([O-])/C(C(Cl)=C(Cl)Cl)=C(\SCc1ccccc1)N1CCCCC1` displayed a TGI of 51.5 µM.

Consider `COc1ccc2c(=O)c(O)c(-c3ccc(OC)c(OC)c3)oc2c1`, for which the TGI worked out at 0.599 µM.

Turning to `O=S1(=O)NC(=NCc2c[nH]c3ccccc23)N(c2ccccc2)c2ccncc21`, the TGI is over 100 µM.

Compound `CC[C@@]1(O)C(=O)OCc2c1cc1n(c2=O)Cc2c-1nc1ccccc1c2/C=N\NC(=O)CN` yielded a TGI of over 100 µM.

`Cc1ccsc1/C=N/Nc1ncccn1`: the TGI is over 100 µM.

The compound `CCc1ccc(CCN2CCCCC2)nc1` registered a TGI of over 100 µM.

As to `COC(=O)c1cc2c(n1S(=O)(=O)c1ccc(C)cc1)C(=O)C(=O)c1[nH]cc(C(=O)OCc3ccccc3)c1-2`, the TGI worked out at 0.987 µM.

`COC(=O)[C@H](Cc1c[nH]c2ccccc12)NP(=O)(O)OCC1C=CC(n2cc(C)c(=O)[nH]c2=O)O1` (stereo partly specified) gave a TGI of over 100 µM.

In another assay the test system is HCC-2998 colon. Kind of assay: NCI anticancer screen, dose series, 48 h.
With `Oc1cc2c3c(c1)c1cc4c(cc1c[n+]3CC2)OCO4`, the TGI was determined as 25.9 µM.

Consider `O=C(O)c1cccc2c1/C(=N/Nc1ccccc1)CC2`, for which the TGI is over 100 µM.

In turn, `c1ccc(N=C2SC3=Nc4cccc5cccc(c45)N3C2=Nc2ccccc2)cc1` gave a TGI of over 100 µM.

Regarding `CN1CCN([C@H]2C[C@H]3[C@@H]4CC=C5C[C@@H](O)CC[C@]5(C)[C@H]4CC[C@]3(C)C2=O)CC1`, the TGI was over 100 µM.

The compound `C=C(C1=CC(=O)C(C)(C)O1)[C@@H]1CC=C([C@@H]2CC[C@H]3[C@@]2(C)CC[C@H]2C(C)(C)C(=O)[C@H](O)C[C@]32C)[C@H](O)O1` yielded a TGI of 7.49 µM.

The compound `CCNC(=S)N/N=C/c1cc([N+](=O)[O-])ccc1O` showed a TGI of over 100 µM.

`Oc1cccc2c(Cl)ccnc12` came in with a TGI of 14.9 µM.

In the case of `COc1cc([C@@H]2c3cc4c(cc3[C@@H](Nc3ccc([N+](=O)[O-])cc3C(=O)c3ccccc3)[C@H]3COC(=O)[C@H]23)OCO4)cc(OC)c1OC`, the TGI is over 100 µM.

With `Oc1ccc(-c2nc(-c3cccnc3)c(-c3ccc(F)cc3)[nH]2)cc1`, the TGI was determined as 40.3 µM.

The compound `CCC1(O)CC2CC(=O)OC2C1O` (stereo unspecified) showed a TGI of over 100 µM.

Compound `CCOC(=O)Nn1c(C)nnc1-c1ccccc1` yielded a TGI of over 100 µM.

In the case of `O=[N+]([O-])/C(C(Cl)=C(Cl)Cl)=C(\SCc1ccccc1)N1CCCCC1`, the TGI turned out to be 45.7 µM.

`COc1ccc2c(=O)c(O)c(-c3ccc(OC)c(OC)c3)oc2c1` registered a TGI of over 100 µM.

As to `O=S1(=O)NC(=NCc2c[nH]c3ccccc23)N(c2ccccc2)c2ccncc21`, the TGI was over 100 µM.

As for `CC[C@@]1(O)C(=O)OCc2c1cc1n(c2=O)Cc2c-1nc1ccccc1c2/C=N\NC(=O)CN`, the TGI is over 47.4 µM.

As to `Cc1ccsc1/C=N/Nc1ncccn1`, the TGI is over 100 µM.

For `CCc1ccc(CCN2CCCCC2)nc1`, the TGI is over 100 µM.

`COC(=O)c1cc2c(n1S(=O)(=O)c1ccc(C)cc1)C(=O)C(=O)c1[nH]cc(C(=O)OCc3ccccc3)c1-2` yielded a TGI of 0.634 µM.

As for `COc1ccc(C2c3cc4c(cc3OC(NNS(=O)(=O)c3ccc(C)cc3)C2C)OCO4)cc1` (stereo unspecified), the TGI is over 100 µM.

In the case of `COC(=O)[C@H](Cc1c[nH]c2ccccc12)NP(=O)(O)OCC1C=CC(n2cc(C)c(=O)[nH]c2=O)O1` (stereo partly specified), the TGI is over 100 µM.
